Values of other authors, collected in patent US20050256196A1, “Decreasing brain neuronal glutamate levels using alpha-keto branched chain amino acids” (Odessa Pharma, priority 2004, published 2005).

Key:
[1] = in vivo
glutamine synthetase [2] = molecular target: T1, glutamine synthetase (Rattus norvegicus, UniProt P09606); design: known convulsant doses of MSO (MW 179) to rats; host or cells: rats, in vivo (endogenous enzyme)
glutamine synthetase [3] = molecular target: T1, glutamine synthetase
glutamine synthetase [4] = molecular target: T1, glutamine synthetase; conditions: normal animals after MSO; reduced from 5.6
[5] = rats, known convulsant doses of MSO

T1 sequence (P09606 2-373 limits assumed): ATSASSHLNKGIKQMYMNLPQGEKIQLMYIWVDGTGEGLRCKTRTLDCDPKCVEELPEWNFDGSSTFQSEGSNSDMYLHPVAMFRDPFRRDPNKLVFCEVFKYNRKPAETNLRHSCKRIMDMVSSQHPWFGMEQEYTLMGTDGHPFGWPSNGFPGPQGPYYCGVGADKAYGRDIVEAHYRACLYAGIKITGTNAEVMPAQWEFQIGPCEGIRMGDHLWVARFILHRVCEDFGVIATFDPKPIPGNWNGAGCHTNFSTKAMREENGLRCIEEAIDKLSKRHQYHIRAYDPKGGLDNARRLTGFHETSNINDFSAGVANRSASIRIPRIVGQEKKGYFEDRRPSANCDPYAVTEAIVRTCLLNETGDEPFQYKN

For CP(=O)(O)CCC(N)C(=O)O [Glufosinate, ammonium-D-L-homoalanine-4-yl(methyl)-phosphinate], the “crossing of the blood-brain barrier” value [1] is listed as “does not cross the blood-brain barrier”.
In the case of CSCC[C@H](N)C(=O)O [L-methionine], the “convulsant activity of MSO on simultaneous administration of L-methionine” value (glutamine synthetase [2]; [5]) is given as “prevents the convulsant activity” and the “glutamine synthetase inhibitory activity of MSO on simultaneous administration of L-methionine” value (glutamine synthetase [2]; [5]) is given as “preserves the glutamine synthetase inhibitory activity”.
In the case of CS(=N)(=O)CC[C@H](N)C(=O)O (stereo partly drawn) [MSO, L-methionine S-sulfoximine], the “reduction of nerve terminal glutamate levels” value (glutamine synthetase [3]) is listed as 52%, the “reduction of brain astrocyte levels of glutamine” value (glutamine synthetase [3]; normal animals) is listed as 66% and the “brain levels of glutamine” value (glutamine synthetase [4]) is listed as 1.8 mmol/kg brain. The convulsant effect (glutamine synthetase [2]; depending on the dosage) was “can cause periodic convulsions”.
